# How the values were obtained:
# [1] = tested on: rabbit platelet-rich plasma; conditions: 3µM; cited from earlier work
# pooled human plasma [2] = test: Prothrombin time in pooled human plasma; assay type: biochemical; conditions: 40 μM total plasma concentration; baseline 10.3 ± 0.1 s
# recombinant FXIa [3] = target: recombinant FXIa (Canis lupus familiaris, UniProt A0A8I3NYS2); conditions: dog recombinant FXIa
# recombinant FXIa [4] = target: recombinant FXIa (Oryctolagus cuniculus, UniProt G1SSQ6); test: biochemical
# Sequence of recombinant FXIa (Oryctolagus cuniculus, UniProt G1SSQ6) (G1SSQ6 387-624): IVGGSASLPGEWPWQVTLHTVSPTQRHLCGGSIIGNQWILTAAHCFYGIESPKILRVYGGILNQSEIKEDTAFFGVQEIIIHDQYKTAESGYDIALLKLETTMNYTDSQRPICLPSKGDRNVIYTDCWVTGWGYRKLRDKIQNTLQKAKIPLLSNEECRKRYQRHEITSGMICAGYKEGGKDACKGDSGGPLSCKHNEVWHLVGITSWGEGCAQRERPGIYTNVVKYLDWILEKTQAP
# pooled human plasma [5] = test: Thrombin clotting time in pooled human plasma; assay type: biochemical; conditions: baseline 16.6 s
# cynomolgus monkey plasma [6] = test: Ecarin clotting time in cynomolgus monkey plasma; assay type: biochemical; conditions: 40 μM
# recombinant FXIa [7] = target: recombinant FXIa (Macaca fascicularis, UniProt A0A2K5VVW4); test: biochemical
# Sequence of recombinant FXIa (Macaca fascicularis, UniProt A0A2K5VVW4) (A0A2K5VVW4 388-625): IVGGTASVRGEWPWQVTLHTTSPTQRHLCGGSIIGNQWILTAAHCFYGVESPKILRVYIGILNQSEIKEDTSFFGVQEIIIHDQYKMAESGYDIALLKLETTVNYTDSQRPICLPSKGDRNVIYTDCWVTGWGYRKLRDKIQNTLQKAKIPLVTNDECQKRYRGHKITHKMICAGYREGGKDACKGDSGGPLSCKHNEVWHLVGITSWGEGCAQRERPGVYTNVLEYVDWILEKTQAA
# [8] = Pharmacokinetics in rabbits; conditions: rabbit, in vivo
# [9] = tested on: electrically mediated carotid arterial thrombosis; test: Rabbit ECAT model, prevention of thrombosis; assay type: in vivo
# [10] = Ex vivo coagulation assays; assay type: in vivo, rabbit
# [11] = tested on: rabbit platelet-rich plasma; test: In vitro platelet aggregation in hirudin-treated rabbit platelet-rich plasma; assay type: cell-based; conditions: for peak platelet aggregation response to ADP (10 µM): control 59 ± 1%; for peak platelet aggregation response to ADP (10 µM) / peak platelet aggregation response to collagen (10 µg/ml) / peak platelet aggregation response to arachidonic acid (250 µM): n = 4; for peak platelet aggregation response to collagen (10 µg/ml): control 66 ± 1%; for peak platelet aggregation response to arachidonic acid (250 µM): control 67 ± 1%
# recombinant FXIa [12] = target: recombinant FXIa (Rattus norvegicus, UniProt F7F105)
# Sequence of recombinant FXIa (Rattus norvegicus, UniProt F7F105) (F7F105 400-556): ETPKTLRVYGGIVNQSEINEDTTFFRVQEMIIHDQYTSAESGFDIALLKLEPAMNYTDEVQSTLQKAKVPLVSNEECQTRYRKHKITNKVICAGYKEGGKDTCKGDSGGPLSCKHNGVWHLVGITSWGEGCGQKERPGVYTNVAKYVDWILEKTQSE
# cynomolgus monkey plasma [13] = test: In vitro PT in cynomolgus monkey plasma; assay type: biochemical; conditions: 40 μM, reagent not given
# [14] = ECAT rabbits, 120 min after start of infusion
# Sequence of recombinant FXIa (Canis lupus familiaris, UniProt A0A8I3NYS2) (A0A8I3NYS2 389-626): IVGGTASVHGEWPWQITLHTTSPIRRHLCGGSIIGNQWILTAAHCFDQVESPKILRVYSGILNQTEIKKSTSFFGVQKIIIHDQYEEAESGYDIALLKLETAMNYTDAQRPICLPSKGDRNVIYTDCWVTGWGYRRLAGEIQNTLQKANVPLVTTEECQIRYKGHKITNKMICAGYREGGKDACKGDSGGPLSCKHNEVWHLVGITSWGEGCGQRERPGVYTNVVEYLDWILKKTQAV
structure (smiles),measurement,setting,value
Cc1noc(C)c1S(=O)(=O)N[C@@H](CNC(=O)C[C@H]1CC(c2ccc(C(=N)N)cc2)=NO1)C(=O)O [DMP802],"platelet aggregation responses to ADP, arachidonic acid, and collagen",[1],almost completely inhibited
C[C@@H]1CCC[C@H](n2cnc(-c3cc(Cl)ccc3-n3cc(Cl)nn3)cc2=O)c2cc(ccn2)-c2c(cnn2C(F)F)NC1=O [milvexian],PT,pooled human plasma [2],12.9 ± 0.4 s
same,Ki,recombinant FXIa [3],0.64 ± 0.03 nM
same,Ki,recombinant FXIa [4],0.38 ± 0.01 nM
same,TT,pooled human plasma [5]; 20 μM total plasma concentration,24.8 s
same,TT,pooled human plasma [5]; 40 μM total plasma concentration,28.4 s
same,ecarin clotting time increase over baseline,cynomolgus monkey plasma [6],1.9 ×
same,Ki,recombinant FXIa [7],0.15 ± 0.01 nM
same,concentration at 10 min,"[8]; male, iv, 0.8 mg/kg",2000 nM
same,concentration at 8 h,"[8]; male, iv, 0.8 mg/kg",100 nM
same,concentration at 1 h,"[8]; po, 20 mg/kg",2000 nM
same,concentration at 24 h,"[8]; po, 20 mg/kg",40 nM
same,reduction of thrombus weight,"[9]; 0.063 + 0.04 mg/kg+mg/kg/h IV, n = 6",15 ± 10%
same,20% maximal effective concentration (antithrombotic),"[9]; total plasma concentration, 95% CI 23–128",55 nM
same,ex vivo PT,[10]; [14],did not alter
same,ex vivo TT,[10]; [14],did not alter
same,ex vivo APTT,"[10]; ECAT rabbits, highest two doses, 120 min after start of infusion",elevated APTT significantly
same,prolongation of ex vivo APTT needed to achieve 50% thrombus weight reduction,[10]; rabbit ECAT,1.6 fold
same,peak platelet aggregation response to ADP (10 µM),[11]; milvexian 1 μM,58 ± 2%
same,peak platelet aggregation response to collagen (10 µg/ml),[11]; milvexian 1 μM,67 ± 2%
same,peak platelet aggregation response to arachidonic acid (250 µM),[11]; milvexian 1 μM,65 ± 1%
same,peak platelet aggregation response to ADP (10 µM),[11]; milvexian 10 μM,55 ± 2%
same,peak platelet aggregation response to collagen (10 µg/ml),[11]; milvexian 10 μM,69 ± 1%
same,peak platelet aggregation response to arachidonic acid (250 µM),[11]; milvexian 10 μM,66 ± 2%
same,"platelet aggregation to ADP, arachidonic acid, or collagen",[11]; result in words,did not alter
same,Ki,recombinant FXIa [12],490 ± 40 nM
same,PT increase over baseline,cynomolgus monkey plasma [13],approximately 2 ×

# From paper PMC9299130 (Journal of Thrombosis and Haemostasis, 2021)
